Assay [1] addresses T1, Retinoic acid receptor RXR-beta (Homo sapiens, UniProt P28702).
T1 sequence (P28702 whole entry): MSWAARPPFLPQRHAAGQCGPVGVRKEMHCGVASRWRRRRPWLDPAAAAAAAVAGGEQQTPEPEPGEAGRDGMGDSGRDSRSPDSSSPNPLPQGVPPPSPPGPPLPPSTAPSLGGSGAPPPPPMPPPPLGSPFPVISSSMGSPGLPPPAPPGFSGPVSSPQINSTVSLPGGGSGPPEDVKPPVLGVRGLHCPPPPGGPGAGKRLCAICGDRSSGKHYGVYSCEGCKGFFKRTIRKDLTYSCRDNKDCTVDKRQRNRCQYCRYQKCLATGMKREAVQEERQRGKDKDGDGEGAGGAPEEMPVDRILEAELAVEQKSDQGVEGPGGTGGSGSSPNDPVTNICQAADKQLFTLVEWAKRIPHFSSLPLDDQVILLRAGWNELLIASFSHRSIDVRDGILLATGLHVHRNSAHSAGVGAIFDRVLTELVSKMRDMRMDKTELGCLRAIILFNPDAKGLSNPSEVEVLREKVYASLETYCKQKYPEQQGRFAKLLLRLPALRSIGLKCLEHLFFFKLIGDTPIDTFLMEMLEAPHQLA
Briefly: Transcriptional activity was evaluated in CV-1 cells transfected with expression vector for Retinoic acid receptor RXR-beta. Format: functional, cell-based.

The target in assay [2] is T2, Retinoic acid receptor RXR-alpha (Homo sapiens, UniProt P19793).
T2 sequence (P19793 whole entry): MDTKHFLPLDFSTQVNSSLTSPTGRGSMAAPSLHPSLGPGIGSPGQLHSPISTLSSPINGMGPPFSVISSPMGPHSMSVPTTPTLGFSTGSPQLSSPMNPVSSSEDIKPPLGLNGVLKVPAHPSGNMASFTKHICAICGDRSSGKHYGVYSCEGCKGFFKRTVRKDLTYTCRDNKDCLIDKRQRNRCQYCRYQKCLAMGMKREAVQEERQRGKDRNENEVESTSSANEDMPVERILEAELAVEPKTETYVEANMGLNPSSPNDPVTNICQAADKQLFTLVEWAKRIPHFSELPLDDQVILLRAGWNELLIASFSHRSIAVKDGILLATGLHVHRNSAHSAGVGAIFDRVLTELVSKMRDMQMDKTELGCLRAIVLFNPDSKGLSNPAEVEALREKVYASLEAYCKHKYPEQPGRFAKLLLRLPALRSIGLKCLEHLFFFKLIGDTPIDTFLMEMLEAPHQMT
Briefly: Binding affinity towards recombinantly expressed Retinoic acid receptor RXR-alpha in baculoviral system, by using 5 nM [3H]targretin in a competitive binding assay.

The target in assay [3] is T2, Retinoic acid receptor RXR-alpha. Briefly: Transcriptional activity was evaluated in CV-1 cells transfected with expression vector for Retinoic acid receptor RXR-alpha. The assay is classed as functional, cell-based.
For assay [4], the target named is T3, Retinoic acid receptor RXR-gamma (Homo sapiens, UniProt P48443).
T3 sequence (P48443 whole entry): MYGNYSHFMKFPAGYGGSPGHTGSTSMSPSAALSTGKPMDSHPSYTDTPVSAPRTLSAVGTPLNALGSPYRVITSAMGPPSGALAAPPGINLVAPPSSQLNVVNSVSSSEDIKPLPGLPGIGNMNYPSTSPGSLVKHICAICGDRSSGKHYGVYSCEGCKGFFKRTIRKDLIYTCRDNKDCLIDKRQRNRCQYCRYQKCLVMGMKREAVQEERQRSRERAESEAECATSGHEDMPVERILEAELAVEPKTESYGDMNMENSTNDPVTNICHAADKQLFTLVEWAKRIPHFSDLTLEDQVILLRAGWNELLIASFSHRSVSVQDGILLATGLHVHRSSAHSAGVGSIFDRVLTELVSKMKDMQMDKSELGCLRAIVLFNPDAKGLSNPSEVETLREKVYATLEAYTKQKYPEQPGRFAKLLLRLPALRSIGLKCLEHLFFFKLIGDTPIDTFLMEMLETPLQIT
Briefly: Binding affinity towards recombinantly expressed Retinoic acid receptor RXR-gamma in baculoviral system, by using 5 nM [3H]targretin in a competitive binding assay.

In assay [5] the target is T1, Retinoic acid receptor RXR-beta. The assay can be described thus: Binding affinity towards recombinantly expressed Retinoic acid receptor RXR-beta in baculoviral system, by using 5 nM [3H]targretin in a competitive binding assay.
Assay [6] deals with T3, Retinoic acid receptor RXR-gamma. Briefly: Transcriptional activity was evaluated in CV-1 cells transfected with expression vector for Retinoic acid receptor RXR-gamma. Format: functional, cell-based.
For assay [7], the target named is T4, Retinoic acid receptor RXR-beta (Homo sapiens) (UniProt P28702).
T4 sequence (whole entry): T1 sequence (P28702 whole entry)
Briefly: Percent transcriptional activation relative to ATRA in CV-1 cells expressing Retinoid X receptor RXR beta. Format: functional, cell-based.

For assay [8], the target named is T5, Retinoic acid receptor alpha (Homo sapiens) (UniProt P10276).
T5 sequence (whole entry): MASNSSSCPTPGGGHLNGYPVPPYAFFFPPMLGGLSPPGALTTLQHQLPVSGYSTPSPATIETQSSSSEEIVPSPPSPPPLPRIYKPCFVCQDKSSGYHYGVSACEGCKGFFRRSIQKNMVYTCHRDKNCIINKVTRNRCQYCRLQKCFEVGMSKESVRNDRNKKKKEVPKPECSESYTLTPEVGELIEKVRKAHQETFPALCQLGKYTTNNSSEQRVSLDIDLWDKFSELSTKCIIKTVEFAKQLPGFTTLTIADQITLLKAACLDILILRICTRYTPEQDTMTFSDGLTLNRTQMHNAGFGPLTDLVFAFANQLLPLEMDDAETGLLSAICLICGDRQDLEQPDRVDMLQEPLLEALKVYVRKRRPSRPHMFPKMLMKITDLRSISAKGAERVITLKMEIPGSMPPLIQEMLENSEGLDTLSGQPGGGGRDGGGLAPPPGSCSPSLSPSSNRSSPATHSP
Briefly: Percent transcriptional activation relative to ATRA in CV-1 cells expressing Retinoic acid receptor RAR alpha. Format: functional, cell-based.

The target of assay [9] is T6, Retinoic acid receptor gamma (Homo sapiens) (UniProt P13631).
T6 sequence (whole entry): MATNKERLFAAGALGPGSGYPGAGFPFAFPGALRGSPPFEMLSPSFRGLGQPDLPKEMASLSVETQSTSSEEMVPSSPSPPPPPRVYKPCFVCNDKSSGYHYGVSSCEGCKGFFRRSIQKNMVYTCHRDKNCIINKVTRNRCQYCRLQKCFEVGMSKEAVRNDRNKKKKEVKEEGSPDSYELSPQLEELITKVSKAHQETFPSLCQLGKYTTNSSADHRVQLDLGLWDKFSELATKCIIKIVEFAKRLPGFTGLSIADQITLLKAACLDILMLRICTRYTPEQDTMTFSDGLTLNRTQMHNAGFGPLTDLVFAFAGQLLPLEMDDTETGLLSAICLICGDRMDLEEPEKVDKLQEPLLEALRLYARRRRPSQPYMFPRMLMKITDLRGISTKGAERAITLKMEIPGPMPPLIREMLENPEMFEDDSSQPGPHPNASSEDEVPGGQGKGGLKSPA
Briefly: Percent transcriptional activation relative to ATRA in CV-1 cells expressing Retinoic acid receptor RAR gamma. The assay is classed as functional, cell-based.

The target in assay [10] is T7, Retinoic acid receptor beta (Homo sapiens) (UniProt P10826).
T7 sequence (whole entry): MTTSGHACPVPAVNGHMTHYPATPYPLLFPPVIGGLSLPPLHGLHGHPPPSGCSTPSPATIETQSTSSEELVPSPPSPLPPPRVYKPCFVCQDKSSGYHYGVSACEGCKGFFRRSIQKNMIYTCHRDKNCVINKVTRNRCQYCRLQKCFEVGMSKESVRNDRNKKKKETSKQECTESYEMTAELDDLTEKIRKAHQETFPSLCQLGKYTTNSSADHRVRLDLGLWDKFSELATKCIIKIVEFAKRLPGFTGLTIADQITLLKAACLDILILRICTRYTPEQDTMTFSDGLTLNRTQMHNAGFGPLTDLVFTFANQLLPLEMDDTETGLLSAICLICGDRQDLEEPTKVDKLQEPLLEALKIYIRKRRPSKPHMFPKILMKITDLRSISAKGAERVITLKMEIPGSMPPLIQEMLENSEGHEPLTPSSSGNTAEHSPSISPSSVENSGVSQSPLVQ
The assay can be described thus: Percent transcriptional activation relative to ATRA in CV-1 cells expressing Retinoic acid receptor RAR beta. The assay is classed as functional, cell-based.

SMILES strings stand for the structures. pEC50, pKi: −log10 of the molar value.

Usually pEC50 stands for −log10 of the EC50, conventionally taken in molar units. High values mean a small EC50, low ones a large EC50. A word on the pKi: it is the Ki on a negative log10 scale, so that one unit is a factor of ten.

As to `Cc1cc2c(cc1/C(=N\OC(C)(C)C)c1ccc(C(=O)O)cc1)C(C)(C)CCC2(C)C`, the pEC50 in assay [1], in assay [3] and in assay [6] was under 5.00 each time. Also, the pKi in [2], in assay [4] and in assay [5] was under 6.00 in each case.

For the compound `CCCO/N=C(\c1ccc(C(=O)O)cc1)c1cc2c(cc1C)C(C)(C)CCC2(C)C`, the negative-log EC50 (pEC50) in assay [1] is 7.43; in [3] it was 7.49; in [6] it was 7.55. The pKi in assay [2] is 8.22; in [4] it was 7.24; in assay [5], 7.21.

On to `CO/N=C(/c1ccc(C(=O)O)cc1)c1ccc2c(c1)C(C)(C)CCC2(C)C`, for which the results for the negative logarithm of the EC50 (pEC50) in [1], in assay [3] and in [6] were 6.68, 6.60 and 6.69, respectively. Further, the pKi in [2] is under 6.00; in assay [4] it was 6.25; in assay [5], 6.44.

For the compound `CCO/N=C(/c1ccc(C(=O)O)cc1)c1cc2c(cc1C)C(C)(C)CCC2(C)C`, the pEC50 in assay [1], in assay [3] and in assay [6] was under 5.00 in each case. In addition, the results for the pKi in [2], in [4] and in assay [5] were 6.21, 6.33 and under 6.00, respectively.

For `CCO/N=C(\c1ccc(C(=O)O)cc1)c1cc2c(cc1C)C(C)(C)CCC2(C)C`, the pEC50 is 7.92 in [1], 8.30 in [3] and 8.05 in assay [6]. Moreover, the pKi was 7.59 in [2], 7.38 in assay [4] and 7.24 in assay [5].

`Cc1cc2c(cc1/C(=N/OC(C)(C)C)c1ccc(C(=O)O)cc1)C(C)(C)CCC2(C)C`: the negative-log EC50 (pEC50) in assay [1], in assay [3] and in [6] was under 5.00 throughout. Further, the pKi in [2] is 6.32; in assay [4], 6.35; in [5], 6.21.

Consider `CCCCO/N=C(\c1ccc(C(=O)O)cc1)c1cc2c(cc1C)C(C)(C)CCC2(C)C`, for which the values for the negative-log EC50 (pEC50) in [1], in assay [3] and in [6] were 6.80, 7.07 and 7.00, respectively. Moreover, the results for the negative-log Ki (pKi) in [2], in [4] and in assay [5] were 6.75, 6.65 and 6.55, respectively.

Turning to `Cc1cc2c(cc1/C(=N/O)c1ccc(C(=O)O)cc1)C(C)(C)CCC2(C)C`, the negative logarithm of the EC50 (pEC50) in assay [1] is 7.85; in [6] it was 8.15. Further, the Efficacy in assay [7] was 81%; in [8] it was 6%; in assay [9] it was 13%; in assay [10], 10%. Further, the negative logarithm of the Ki (pKi) in assay [4] and in assay [5] was 8.30 in each case.

Consider `CO/N=C(/c1ccc(C(=O)O)cc1)c1cc2c(cc1C)C(C)(C)CCC2(C)C`, for which the negative logarithm of the EC50 (pEC50) in assay [1] was 6.42; in [3] it was 6.42; in assay [6], 6.60. Also, the results for the pKi in [2], in [4] and in [5] were 6.40, 6.62 and under 6.00, respectively.

On to `Cc1cc2c(cc1/C(=N/OCC#N)c1ccc(C(=O)O)cc1)C(C)(C)CCC2(C)C`, for which the figures for the pEC50 in [1], in [3] and in assay [6] were 7.60, 7.92 and 7.96, respectively. Besides, the negative-log Ki (pKi) in assay [2] is 7.96; in [4], 7.85; in assay [5], 7.85.

Regarding `Cc1cc2c(cc1/C(=N/OCCN)c1ccc(C(=O)O)cc1)C(C)(C)CCC2(C)C`, the pEC50 was 7.21 in [1], 6.46 in assay [3] and 6.51 in assay [6]. Further, the pKi in assay [2], in [4] and in assay [5] was under 6.00 in each case.

For the compound `Cc1cc2c(cc1/C(=N/OCC(=O)O)c1ccc(C(=O)O)cc1)C(C)(C)CCC2(C)C`, the figures for the pEC50 in [1], in [3] and in assay [6] were 5.86, 6.15 and 5.86, respectively. Besides, the pKi in assay [2], in [4] and in assay [5] was under 6.00 each time.

As for `C=CCO/N=C(\c1ccc(C(=O)O)cc1)c1cc2c(cc1C)C(C)(C)CCC2(C)C`, the pEC50 in assay [1] is 7.74; in assay [3], 8.22; in assay [6] it was 8.15. Also, the negative-log Ki (pKi) in [2] was 8.15; in assay [4], 7.10; in assay [5], 7.82.

Take `CC1(C)CCC(C)(C)c2cc(/C(=N/O)c3ccc(C(=O)O)cc3)ccc21`: the figures for the negative-log EC50 (pEC50) in assay [1], in assay [3] and in assay [6] were under 5.00, 5.53 and 5.54, respectively. Further, the negative logarithm of the Ki (pKi) in assay [2] is 5.37; in assay [4], 5.30; in [5], 5.47.

With `CC1(C)CCC(C)(C)c2cc(/C(=N/O)c3ccc(C(=O)O)cc3)c(Br)cc21`, the results for the pEC50 in assay [1], in assay [3] and in assay [6] were 7.49, 7.57 and 7.59, respectively. The negative logarithm of the Ki (pKi) in [2] was 7.92; in assay [4], 7.24; in assay [5], 8.22.

Turning to `Cc1cc2c(cc1/C(=N\O)c1ccc(C(=O)O)cc1)C(C)(C)CCC2(C)C`, the values for the pEC50 in assay [1] and in assay [6] were 6.78 and 7.47, respectively. Also, the pKi in [4] is 6.68; in assay [5], 6.92.
